Where two headings read alike, the source gives them in different places.
Molecular target: T1, human NOD2 (Homo sapiens, UniProt Q9HC29)
T1 construct: host or cells: HEK293
Test: human NOD2 specific reporter gene assay (NF-κB induction)
Type: cell-based
Procedure: Example 5: High-throughput screens in porcine blood: Curated compound collections were obtained from the Institute for Therapeutics Discovery & Development at the University of Minnesota. Compound transfers from source (80 nL of 10 mM stocks) to assay plates were performed using an Echo 550 acoustic liquid handler (Labcyte, Sunnyvale, Calif.). For most libraries, a target final concentration of 10 μM of compound (in a final volume of 80 μL for the assay described below) was achieved. Compound plates were hermetically sealed and stored at −80° C. until used. Fresh, heparin-anticoagulated porcine blood from healthy animals were obtained under USDA supervision from Midwest Research Swine, LLC (Glencoe, Minn.). 80 μL of hematocrit-enriched porcine blood (low-speed centrifugation, followed by resuspension in DMEM supplemented with 10% fetal bovine serum) was added to compound plates and incubated for 15 h. The following day, the plates were briefly centrifuged (100 g, 10 min), and supernatants were transferred using an automated ViaFlow 384 transfer device (Integra Biosciences Corp., Hudson, N.H.) to assay plates containing of 10^6 cells/mL of each of the following NF-κB/secreted alkaline phosphatase reporter cells suspended in HEK-Blue Detection Media: human IFN-α/β, human IFN-γ, human TNF-α/IL-1β (InvivoGen, San Diego, Calif.). NF-κB translocation was assayed spectrophotometrically using an alkaline phosphatase-specific chromogen (present in HEK-detection medium as supplied by InvivoGen) at 620 nm using a SpectraMax M4 multimode microplate reader (Molecular Devices, Sunnyvale, Calif.). Z′ factors were computed for each TLR/NOD-specific signals. Hits were defined as signals >4σ (in-plate standard deviations for test compounds above negative control means), were deconvoluted in full dose-response assays in human TLR-2/-3/-4/-5/-7/-8/-9 and NOD-1/NOD-2-specific reporter cells in liquid handler-assisted assay formats as described previously. Example 6: Murine knockout cell-lines: The following reagents were obtained through BEI Resources, NIAID, NIH: the microglial cell line derived from MAL/MyD88 double knockout Mice (NR-9904), and the macrophage cell line derived from TRIF/TRAM knockout mice (NR-9568). Example 7: Human NOD1/2-specific reporter gene assays (NF-κB induction), and TLR-2/-3/-4/-5/-7/-8/-9/STING/ISG counter-screens: The induction of NF-κB was quantified using human TLR-2/-3/-4/-5/-7/-8/-9/NOD-1/NOD-2/STING/ISG-specific, rapid-throughput, liquid handler-assisted reporter gene assays as previously described by us (Wu, W. et al. J. Med. Chem. 2010, 53, 3198-3213; Shukla, N. M. et al. J. Med. Chem. 2010, 53, 4450-4465; Agnihotri, G. et al. J. Med. Chem. 2011, 54, 1490-1510 and Ukani, R. et al. Bioorg. Med. Chem. Lett. 2012, 22, 293-295). HEK293 cells stably co-transfected with the appropriate hTLR and secreted alkaline phosphatase (sAP) were maintained in HEK-Blue™ Selection medium. Stable expression of secreted alkaline phosphatase (sAP) under control of NF-κB/AP-1/IRF promoters is inducible by appropriate innate immune stimuli, and extracellular sAP in the supernatant is proportional to NF-κB/IRF induction. Reporter cells were incubated at a density of ˜10^5 cells/ml in a volume of 80 μl/well, in 384-well, flat-bottomed, cell culture-treated microtiter plates in the presence of graded concentrations of stimuli. sAP was assayed spectrophotometrically using an alkaline phosphatase-specific chromogen (present in HEK-detection medium as supplied by InvivoGen) at 620 nm. Example 8: Multiplexed immunoassays for human cytokines: Fresh human peripheral blood mononuclear cells (hPBMC) were isolated from human blood obtained by venipuncture in Cell Preparation Tubes (CPT, Beckton-Dickinson) with informed consent and as per guidelines approved by the University of Minnesota Human Subjects Experimentation Committee. Aliquots of PBMCs or THP-1 cells (10^5 cells in 100 μL/well) were stimulated for 16 h with graded concentrations of test compounds. […]

[1] = human NOD2 reporter gene assay, read-out: EC50 values, human NOD2 agonistic potency
[2] = human NOD2 specific reporter gene assay, arithmetic mean of quadruplicate samples, NA* indicates inactive under the tested conditions, read-out: hNOD2 Agonistic Activity (μM), EC50

T1 sequence (Q9HC29 whole entry): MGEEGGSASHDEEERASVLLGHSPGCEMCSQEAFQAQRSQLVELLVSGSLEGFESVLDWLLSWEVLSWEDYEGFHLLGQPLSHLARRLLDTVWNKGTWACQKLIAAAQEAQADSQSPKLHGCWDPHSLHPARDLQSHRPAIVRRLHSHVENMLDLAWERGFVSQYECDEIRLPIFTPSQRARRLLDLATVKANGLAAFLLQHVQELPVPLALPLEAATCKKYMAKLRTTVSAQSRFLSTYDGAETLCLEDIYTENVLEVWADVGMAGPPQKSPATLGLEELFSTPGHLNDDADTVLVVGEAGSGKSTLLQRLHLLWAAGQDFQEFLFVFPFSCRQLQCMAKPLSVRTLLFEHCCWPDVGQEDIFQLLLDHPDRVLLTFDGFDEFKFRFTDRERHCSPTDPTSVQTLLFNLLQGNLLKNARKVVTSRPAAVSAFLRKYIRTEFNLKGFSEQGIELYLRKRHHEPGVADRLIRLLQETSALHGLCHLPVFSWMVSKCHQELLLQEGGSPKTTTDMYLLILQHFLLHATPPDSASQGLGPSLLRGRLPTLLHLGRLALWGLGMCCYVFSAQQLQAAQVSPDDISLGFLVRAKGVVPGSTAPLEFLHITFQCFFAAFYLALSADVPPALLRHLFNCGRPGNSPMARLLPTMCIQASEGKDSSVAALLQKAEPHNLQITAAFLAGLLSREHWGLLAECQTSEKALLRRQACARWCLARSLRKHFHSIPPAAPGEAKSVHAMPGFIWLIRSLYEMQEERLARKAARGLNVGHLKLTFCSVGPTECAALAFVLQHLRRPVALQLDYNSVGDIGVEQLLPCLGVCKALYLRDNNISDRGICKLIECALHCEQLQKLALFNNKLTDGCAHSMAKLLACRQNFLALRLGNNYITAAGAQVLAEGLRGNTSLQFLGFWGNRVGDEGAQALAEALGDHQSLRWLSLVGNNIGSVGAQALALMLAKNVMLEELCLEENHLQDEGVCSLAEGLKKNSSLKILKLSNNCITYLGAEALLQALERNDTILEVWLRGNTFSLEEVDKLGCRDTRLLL

| EC50 [1] [µM] | EC50 [2] [µM] | Structure (SMILES) |
| --- | --- | --- |
| 0.66 | 0.664 | CCCCCCc1nc2ccccc2n1-c1csc(C(N)=O)c1 [Compound 7f, 4-(2-Hexyl-1H-benzo[d]imidazol-1-yl)thiophene-2-carboxamide] |
| 0.68 | 0.684 | CCCCCc1nc2ccccc2n1-c1csc(C(N)=O)c1 [Compound 7e, 4-(2-Pentyl-1H-benzo[d]imidazol-1-yl)thiophene-2-carboxamide] |

— patent publication US11465998B2, “Therapeutic compounds and methods of use thereof” (Regents of the University of Minnesota, priority 2019, dated 2022)
